This note sets out measurements from patent US20080114007A1 (priority 2006, published 2008).

Molecules are shown by their SMILES.

The assay has as its target CSF-1R (Homo sapiens, UniProt P07333). Kind of assay: Peptide (non-phosphorylated) assay, fluorescence polarization competition immunoassay. As to conditions: 0.7 nM CSF-1R, 308 μM SYEGNSYTFIDPTQ peptide, 1 mM ATP, 80 min; mean of at least three determinations; read-out: c-fms Peptide IC50. The assay is classed as biochemical. The procedure, abridged: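 Read-out is fluorescence polarization: after EDTA quench, anti-phosphotyrosine antibody plus PTK green tracer compete with the phosphorylated peptide for 30 min. The CSF-1R reaction itself ran 80 min at room temperature after ATP addition. DMSO (4%) wells served as controls, positive controls pre-treated with EDTA.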

Sequence of CSF-1R (P07333 20-972): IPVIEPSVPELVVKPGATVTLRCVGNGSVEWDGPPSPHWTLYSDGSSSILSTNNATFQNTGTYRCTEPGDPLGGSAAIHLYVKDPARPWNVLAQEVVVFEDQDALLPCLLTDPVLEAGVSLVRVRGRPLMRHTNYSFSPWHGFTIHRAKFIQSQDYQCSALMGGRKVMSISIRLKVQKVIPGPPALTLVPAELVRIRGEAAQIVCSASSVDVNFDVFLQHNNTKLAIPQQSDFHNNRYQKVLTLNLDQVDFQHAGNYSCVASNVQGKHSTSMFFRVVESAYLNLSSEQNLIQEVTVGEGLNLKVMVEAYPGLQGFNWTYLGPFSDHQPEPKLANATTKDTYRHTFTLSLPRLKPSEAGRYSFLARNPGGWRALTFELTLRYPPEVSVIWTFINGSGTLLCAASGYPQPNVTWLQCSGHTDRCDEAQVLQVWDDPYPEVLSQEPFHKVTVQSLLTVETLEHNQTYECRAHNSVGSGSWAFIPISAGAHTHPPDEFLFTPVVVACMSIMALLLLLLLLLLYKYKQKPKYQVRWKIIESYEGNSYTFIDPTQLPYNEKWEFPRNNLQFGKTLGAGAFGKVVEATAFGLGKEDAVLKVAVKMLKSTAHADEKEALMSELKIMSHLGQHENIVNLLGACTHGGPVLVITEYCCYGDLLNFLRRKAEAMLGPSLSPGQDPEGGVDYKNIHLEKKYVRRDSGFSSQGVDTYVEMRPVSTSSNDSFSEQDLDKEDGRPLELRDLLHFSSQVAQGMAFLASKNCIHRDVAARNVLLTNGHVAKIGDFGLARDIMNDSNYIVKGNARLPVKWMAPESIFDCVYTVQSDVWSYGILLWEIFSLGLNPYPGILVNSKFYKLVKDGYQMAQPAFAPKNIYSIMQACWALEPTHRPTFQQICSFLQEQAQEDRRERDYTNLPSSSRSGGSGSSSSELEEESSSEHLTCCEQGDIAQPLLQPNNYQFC

As for `CCc1ccc(-n2cc(C(=O)NOC)c(=O)c3cnc(Nc4ccc(C5CCCCN5)cc4)nc32)cc1` (stereo not drawn) [Cpd 242, 8-(4-ethyl-phenyl)-5-oxo-2-(4-piperidin-2-yl-phenylamino)-5,8-dihydro-pyrido[2,3-d]pyrimidine-6-carboxylic acid methoxy-amide], the IC50 was found to be 0.59 nM. On to `CONC(=O)c1cn(-c2ccc3c(c2)CCC3)c2nc(Nc3ccc(C4CCCCN4C)cc3)ncc2c1=O` (stereo not drawn) [Cpd 243, 8-indan-5-yl-2-[4-(1-methyl-piperidin-2-yl)-phenylamino]-5-oxo-5,8-dihydro-pyrido[2,3-d]pyrimidine-6-carboxylic acid methoxy-amide], for which the half-maximal inhibitory concentration (IC50) was determined as 0.52 nM. The value for `CCN1CCCCC1c1ccc(Nc2ncc3c(=O)c(C(=O)NOC)cn(-c4ccc5c(c4)CCC5)c3n2)cc1` (stereo not drawn) [Cpd 244, 2-[4-(1-ethyl-piperidin-2-yl)-phenylamino]-8-indan-5-yl-5-oxo-5,8-dihydro-pyrido[2,3-d]pyrimidine-6-carboxylic acid methoxy-amide] was 0.64 nM; that for `CCc1ccc(-n2cc(C(=O)NOC)c(=O)c3cnc(Nc4ccc(C5CCCCN5CC)cc4)nc32)cc1` (stereo not drawn) [Cpd 245, 8-(4-ethyl-phenyl)-2-[4-(1-ethyl-piperidin-2-yl)-phenylamino]-5-oxo-5,8-dihydro-pyrido[2,3-d]pyrimidine-6-carboxylic acid methoxy-amide] was 0.29 nM. On to `CONC(=O)c1cn(-c2ccc3c(c2)CCC3)c2nc(Nc3ccc(C4CCCCN4)cc3)ncc2c1=O` (stereo not drawn) [Cpd 246, 8-indan-5-yl-5-oxo-2-(4-piperidin-2-yl-phenylamino)-5,8-dihydro-pyrido[2,3-d]pyrimidine-6-carboxylic acid methoxy-amide], for which the IC50 was 0.38 nM. With `CCc1ccc(-n2cc(C(=O)NOC)c(=O)c3cnc(Nc4cccc(OC5CN6CCC5CC6)c4)nc32)cc1` (stereo not drawn) [Cpd 247, 2-[3-(1-aza-bicyclo[2.2.2]oct-3-yloxy)-phenylamino]-8-(4-ethyl-phenyl)-5-oxo-5,8-dihydro-pyrido[2,3-d]pyrimidine-6-carboxylic acid methoxy-amide], the half-maximal inhibitory concentration (IC50) came to 0.59 nM.

`CCc1ccc(-n2cc(C(=O)NOC)c(=O)c3cnc(Nc4cccc(OC5CCCNC5)c4)nc32)cc1` (stereo not drawn) [Cpd 248, 8-(4-ethyl-phenyl)-5-oxo-2-[3-(piperidin-3-yloxy)-phenylamino]-5,8-dihydro-pyrido[2,3-d]pyrimidine-6-carboxylic acid methoxy-amide]: the IC50 was determined as 0.43 nM.

With `CCc1ccc(-n2cc(C(=O)NOC)c(=O)c3cnc(Nc4ccc([C@]5(O)CCN(C)C[C@H]5O)cc4)nc32)cc1` [Cpd 249, 2-{4-[(3R,4R)-(3,4-dihydroxy-1-methyl-piperidin-4-yl)]-phenylamino}-8-(4-ethyl-phenyl)-5-oxo-5,8-dihydro-pyrido[2,3-d]pyrimidine-6-carboxylic acid methoxy-amide], the IC50 came out at 0.55 nM.

With `CONC(=O)c1cn(-c2ccc3c(c2)CCC3)c2nc(Nc3ccc([C@]4(O)CCN(C)C[C@H]4O)cc3)ncc2c1=O` [Cpd 250, 2-{4-[(3R,4R)-(3,4-dihydroxy-1-methyl-piperidin-4-yl)]-phenylamino}-8-indan-5-yl-5-oxo-5,8-dihydro-pyrido[2,3-d]pyrimidine-6-carboxylic acid methoxy-amide], the IC50 was determined as 0.39 nM. As to `CCN1CCCC(Oc2cccc(Nc3ncc4c(=O)c(C(=O)NOC)cn(-c5ccc6c(c5)CCC6)c4n3)c2)C1` (stereo not drawn) [Cpd 251, 2-[3-(1-ethyl-piperidin-3-yloxy)-phenylamino]-8-indan-5-yl-5-oxo-5,8-dihydro-pyrido[2,3-d]pyrimidine-6-carboxylic acid methoxy-amide], the half-maximal inhibitory concentration (IC50) is 0.93 nM. The value for `CONC(=O)c1cn(-c2ccc3c(c2)CCC3)c2nc(Nc3ccc(CCN4CC[C@@H](F)C4)cc3)ncc2c1=O` [Cpd 252, 2-(4-{2-[(3R)-(3-fluoro-pyrrolidin-1-yl)]-ethyl}-phenylamino)-8-indan-5-yl-5-oxo-5,8-dihydro-pyrido[2,3-d]pyrimidine-6-carboxylic acid methoxy-amide] was 0.57 nM. The figure for `CONC(=O)c1cn(-c2ccc3c(c2)CCC3)c2nc(Nc3ccc(CCN4CC[C@H](F)C4)cc3)ncc2c1=O` [Cpd 253, 2-(4-{2-[(3S)-(3-fluoro-pyrrolidin-1-yl)]-ethyl}-phenylamino)-8-indan-5-yl-5-oxo-5,8-dihydro-pyrido[2,3-d]pyrimidine-6-carboxylic acid methoxy-amide] is 0.66 nM; for `CONC(=O)c1cn(-c2ccc3c(c2)CCC3)c2nc(Nc3ccc(CCN4CC(O)C4)cc3)ncc2c1=O` [Cpd 254, 2-{4-[2-(3-hydroxy-azetidin-1-yl)-ethyl]-phenylamino}-8-indan-5-yl-5-oxo-5,8-dihydro-pyrido[2,3-d]pyrimidine-6-carboxylic acid methoxy-amide] it is 0.52 nM. For the compound `CONC(=O)c1cn(-c2ccc3c(c2)CCC3)c2nc(Nc3ccc(CCN4CC[C@H](O)C4)cc3)ncc2c1=O` [Cpd 255, 2-(4-{2-[(3S)-(3-hydroxy-pyrrolidin-1-yl)]-ethyl}-phenylamino)-8-indan-5-yl-5-oxo-5,8-dihydro-pyrido[2,3-d]pyrimidine-6-carboxylic acid methoxy-amide], the half-maximal inhibitory concentration (IC50) turned out to be 0.67 nM.

`CONC(=O)c1cn(-c2ccc3c(c2)CCC3)c2nc(Nc3ccc(CCN4CCCC(F)C4)cc3)ncc2c1=O` (stereo not drawn) [Cpd 256, 2-{4-[2-(3-fluoro-piperidin-1-yl)-ethyl]-phenylamino}-8-indan-5-yl-5-oxo-5,8-dihydro-pyrido[2,3-d]pyrimidine-6-carboxylic acid methoxy-amide]: the 50% inhibitory concentration (IC50) was 0.88 nM.

In the case of `CCc1ccc(-n2cc(C(=O)NOC)c(=O)c3cnc(Nc4ccc(OCCOC)cc4)nc32)cc1` [Cpd 257, 8-(4-ethyl-phenyl)-2-[4-(2-methoxy-ethoxy)-phenylamino]-5-oxo-5,8-dihydro-pyrido[2,3-d]pyrimidine-6-carboxylic acid methoxy-amide], the IC50 is 1.2 nM. With `COCCOc1ccc(Nc2ncc3c(=O)c(C(=O)NOC)cn(-c4ccc5c(c4)CCC5)c3n2)cc1` [Cpd 258, 8-indan-5-yl-2-[4-(2-methoxy-ethoxy)-phenylamino]-5-oxo-5,8-dihydro-pyrido[2,3-d]pyrimidine-6-carboxylic acid methoxy-amide], the IC50 turned out to be 0.94 nM. Turning to `CONC(=O)c1cn(-c2ccc3c(c2)C=CC3)c2nc(Nc3ccc(C4CCN(C)CC4)cc3)ncc2c1=O` [Cpd 259, 8-(1H-inden-5-yl)-2-[4-(1-methyl-piperidin-4-yl)-phenylamino]-5-oxo-5,8-dihydro-pyrido[2,3-d]pyrimidine-6-carboxylic acid methoxy-amide], the IC50 came to 0.7 nM. As to `CCc1ccc(-n2cc(C(=O)NOC)c(=O)c3cnc(Nc4ccc(CCN5CCC5)cc4)nc32)cc1` [Cpd 260, 2-[4-(2-azetidin-1-yl-ethyl)-phenylamino]-8-(4-ethyl-phenyl)-5-oxo-5,8-dihydro-pyrido[2,3-d]pyrimidine-6-carboxylic acid methoxy-amide], the IC50 amounted to 0.61 nM. `COCCOc1cccc(Nc2ncc3c(=O)c(C(=O)NOC)cn(-c4ccc5c(c4)CCC5)c3n2)c1` [Cpd 261, 8-indan-5-yl-2-[3-(2-methoxy-ethoxy)-phenylamino]-5-oxo-5,8-dihydro-pyrido[2,3-d]pyrimidine-6-carboxylic acid methoxy-amide]: the IC50 turned out to be 0.95 nM. For the compound `CONC(=O)c1cn(-c2ccc3c(c2)CCC3)c2nc(Nc3ccc(CCN4CCC4)cc3)ncc2c1=O` [Cpd 262, 2-[4-(2-azetidin-1-yl-ethyl)-phenylamino]-8-indan-5-yl-5-oxo-5,8-dihydro-pyrido[2,3-d]pyrimidine-6-carboxylic acid methoxy-amide], the half-inhibitory concentration (IC50) is 0.59 nM. With `CCN1CC[C@H](Oc2cccc(Nc3ncc4c(=O)c(C(=O)NOC)cn(-c5ccc6c(c5)CCC6)c4n3)c2)C1` [Cpd 263, 2-{3-[(3S)-(1-ethyl-pyrrolidin-3-yloxy)]-phenylamino}-8-indan-5-yl-5-oxo-5,8-dihydro-pyrido[2,3-d]pyrimidine-6-carboxylic acid methoxy-amide], the IC50 was determined as 0.56 nM. Consider `CONC(=O)c1cn(-c2ccc3c(c2)CCC3)c2nc(Nc3ccc(OC4CN5CCC4CC5)cc3)ncc2c1=O` (stereo not drawn) [Cpd 264, 2-[4-(1-aza-bicyclo[2.2.2]oct-3-yloxy)-phenylamino]-8-indan-5-yl-5-oxo-5,8-dihydro-pyrido[2,3-d]pyrimidine-6-carboxylic acid methoxy-amide], for which the concentration for half-maximal inhibition (IC50) turned out to be 0.38 nM. `CCc1ccc(-n2cc(C(=O)NOC)c(=O)c3cnc(Nc4ccc(CCN5CC(F)C5)cc4)nc32)cc1` [Cpd 265, 8-(4-ethyl-phenyl)-2-{4-[2-(3-fluoro-azetidin-1-yl)-ethyl]-phenylamino}-5-oxo-5,8-dihydro-pyrido[2,3-d]pyrimidine-6-carboxylic acid methoxy-amide]: the IC50 was determined as 0.57 nM. For `CONC(=O)c1cn(-c2ccc3c(c2)CCC3)c2nc(Nc3ccc(CCN4CC(F)C4)cc3)ncc2c1=O` [Cpd 266, 2-{4-[2-(3-fluoro-azetidin-1-yl)-ethyl]-phenylamino}-8-indan-5-yl-5-oxo-5,8-dihydro-pyrido[2,3-d]pyrimidine-6-carboxylic acid methoxy-amide], the IC50 is 0.62 nM.

For `CONC(=O)c1cn(-c2ccc3c(c2)CCC3)c2nc(Nc3cccc(OC4CN5CCC4CC5)c3)ncc2c1=O` (stereo not drawn) [Cpd 267, 2-[3-(1-aza-bicyclo[2.2.2]oct-3-yloxy)-phenylamino]-8-indan-5-yl-5-oxo-5,8-dihydro-pyrido[2,3-d]pyrimidine-6-carboxylic acid methoxy-amide], the IC50 came to 0.42 nM. `CCc1ccc(-n2cc(C(=O)NOC)c(=O)c3cnc(Nc4ccc(OC5CN6CCC5CC6)cc4)nc32)cc1` (stereo not drawn) [Cpd 268, 2-[4-(1-aza-bicyclo[2.2.2]oct-3-yloxy)-phenylamino]-8-(4-ethyl-phenyl)-5-oxo-5,8-dihydro-pyrido[2,3-d]pyrimidine-6-carboxylic acid methoxy-amide]: the IC50 stood at 0.4 nM.

Usually IC50 stands for the midpoint of a concentration-inhibition curve.
